Molecular target: canine TRPM8 (Canis lupus familiaris, UniProt Q1A7N1)
Test: In Vitro Canine TRPM8 Functional Assay (Ca2+ fluorescence, icilin activation)
Assay type: cell-based
Settings: for IC50: HEK293 cells stably expressing canine TRPM8, icilin activation, eight-point dose-response, read-out: IC50; for % Inh @ 0.2 (μM) / inhibition at 0.2 µM: compound at 0.2 μM, canine TRPM8, icilin activation; for inhibition at 0.2 µM: read-out: % Inh @ 0.2
How it was run: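 Eight-point dose-response curves in quadruplicate gave EC50 or IC50 values from a Ca2+-sensitive dye assay in HEK293 cells stably carrying canine TRPM8. Icilin, dosed near its 80% maximal level, followed a 5 min compound exposure.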

Chain of canine TRPM8 (Q1A7N1 1-1104): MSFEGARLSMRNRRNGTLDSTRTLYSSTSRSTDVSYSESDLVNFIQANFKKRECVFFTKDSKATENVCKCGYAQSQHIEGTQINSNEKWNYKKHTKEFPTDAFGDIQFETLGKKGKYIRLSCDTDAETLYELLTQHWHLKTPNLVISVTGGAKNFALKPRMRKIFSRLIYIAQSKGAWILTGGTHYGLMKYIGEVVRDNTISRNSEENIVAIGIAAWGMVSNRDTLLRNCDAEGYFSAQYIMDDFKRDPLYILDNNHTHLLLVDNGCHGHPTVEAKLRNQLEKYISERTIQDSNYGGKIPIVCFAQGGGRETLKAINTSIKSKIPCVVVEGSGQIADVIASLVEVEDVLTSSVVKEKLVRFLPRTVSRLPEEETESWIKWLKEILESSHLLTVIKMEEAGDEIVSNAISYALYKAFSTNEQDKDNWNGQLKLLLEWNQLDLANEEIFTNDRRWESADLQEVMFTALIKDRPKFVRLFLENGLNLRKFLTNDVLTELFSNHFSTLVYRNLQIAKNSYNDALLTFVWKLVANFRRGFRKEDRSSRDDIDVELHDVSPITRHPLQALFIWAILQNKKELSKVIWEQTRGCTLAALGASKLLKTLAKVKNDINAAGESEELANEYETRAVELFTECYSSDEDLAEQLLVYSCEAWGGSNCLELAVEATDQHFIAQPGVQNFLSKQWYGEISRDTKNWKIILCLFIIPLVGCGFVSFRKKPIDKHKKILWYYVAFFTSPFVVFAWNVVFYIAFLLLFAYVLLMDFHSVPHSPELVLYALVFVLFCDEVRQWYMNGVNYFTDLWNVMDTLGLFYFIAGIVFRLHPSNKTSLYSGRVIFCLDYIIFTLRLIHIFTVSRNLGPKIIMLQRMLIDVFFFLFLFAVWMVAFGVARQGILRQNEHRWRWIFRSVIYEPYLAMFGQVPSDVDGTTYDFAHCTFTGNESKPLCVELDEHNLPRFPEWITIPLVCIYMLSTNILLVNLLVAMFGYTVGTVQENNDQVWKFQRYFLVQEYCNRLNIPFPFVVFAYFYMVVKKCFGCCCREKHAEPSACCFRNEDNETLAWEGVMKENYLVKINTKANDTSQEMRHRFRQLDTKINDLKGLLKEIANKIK

Structure (SMILES) | IC50 | inhibition at 0.2 µM | % Inh @ 0.2 (μM)
NC(=O)c1ccc(S(=O)(=O)N(Cc2ccc(F)c(C(F)(F)F)c2)c2cc3ccccc3s2)cc1 [Compound 413, N-(Benzo[b]thiophen-2-yl)-N-(4-fluoro-3-trifluoromethyl-benzyl)-4-carboxamide-benzenesulfonamide] | 46 nM | – | 93%
NC(=O)c1ccc(S(=O)(=O)N(CCCC(F)(F)F)c2cc3ccccc3s2)cc1 [Compound 414, N-(Benzo[b]thiophen-2-yl)-N-(4,4,4-trifluoro-butyl)-4-carboxamide-benzene-sulfonamide] | – | – | 33%
COC(=O)c1ccc(S(=O)(=O)N(CCCOC(C)(C)C)c2sc3ccccc3c2C)cc1 [Compound 416, N-(3-Methyl-benzo[b]thiophen-2-yl)-N-(3-tert-butoxy-propyl)-4-carbomethoxy-benzenesulfonamide] | 12 nM | 95% | –
CN(C)Cc1c(N(Cc2ccc(F)c(C(F)(F)F)c2)S(=O)(=O)c2ccccc2)sc2ccccc12 [Compound 418, N-(3-Dimethylaminomethyl-benzo[b]thiophen-2-yl)-N-(4-fluoro-3-trifluoromethyl-benzyl)-benzenesulfonamide] | 69 nM | 90% | –
CCCCN(c1sc2ccccc2c1C=O)S(=O)(=O)c1ccc(C(=O)OC)cc1 [Compound 419, N-(Butyl)-N-(3-formyl-benzo[b]thiophene-2-yl)-4-carbomethoxy-benzenesulfonamide] | 345 nM | 74% | –
CCCCN(c1sc2ccccc2c1CN(C)C)S(=O)(=O)c1ccc(C(=O)OC)cc1 [Compound 420, N-(3-Dimethylaminomethyl-benzo[b]thiophen-2-yl)-N-(butyl)-4-carbomethoxy-benzenesulfonamide] | – | 48% | –
O=S1(=O)C(N(Cc2ccc(F)c(C(F)(F)F)c2)S(=O)(=O)c2ccccc2)=Cc2ccccc21 [Compound 421, N-(4-Fluoro-3-trifluoromethyl-benzyl)-N-(1,1-dioxo-benzo[b]thiophen-2-yl)-benzenesulfonamide] | 64 nM | 90% | –
O=S(=O)(c1ccc(-c2nnn[nH]2)cc1)N(CCCC(F)(F)F)c1cc2ccccc2s1 [Compound 425, N-(Benzo[b]thiophen-2-yl)-N-(4,4,4-trifluoro-butyl)-4-(1H-tetrazol-5-yl)-benzenesulfonamide] | 79 nM | 86% | –
CCCCN(C1=Cc2ccccc2S1(=O)=O)S(=O)(=O)c1ccc(C(=O)OC)cc1 [Compound 430, N-(Butyl)-N-(1,1-dioxo-benzo[b]thiophen-2-yl)-4-carbomethoxy-benzenesulfonamide] | – | 52% | –
CCCCN(C1=Cc2ccccc2S1(=O)=O)S(=O)(=O)c1ccc(C(=O)O)cc1 [Compound 432, N-(Butyl)-N-(1,1-dioxo-1H-benzo[b]thiophen-2-yl)-4-carboxy-benzenesulfonamide] | – | 42% | –
O=C(O)c1ccc(S(=O)(=O)N(C[C@@H]2C[C@@H]3CC[C@H]2C3)c2sc3ccccc3c2Br)cc1 [Compound 439, RS,RS—N-(Bicyclo[2.2.1]heptan-2-ylmethyl)-N-(3-bromobenzo[b]thiophen-2-yl)-4-carboxy-benzenesulfonamide] | 2 nM | – | 86%
CN(C)CCN(c1sc2ccccc2c1Br)S(=O)(=O)c1ccc(C(=O)O)cc1 [Compound 441, N-(3-Bromo-benzo[b]thiophen-2-yl)-N-(2-(dimethylamino)ethyl)-4-carboxy-benzenesulfonamide] | – | 37% | –
CCCCN(c1cc2ccccc2s1)S(=O)(=O)c1ccc(-c2noc(=O)[nH]2)cc1 [Compound 442, N-(Benzo[b]thiophen-2-yl)-N-(butyl)-4-(5-oxo-4,5-dihydro-[1,2,4]oxadiazol-3-yl)-benzenesulfonamide] | 67 nM | 81% | –
CCCCN(c1cc2ccccc2s1)S(=O)(=O)c1ccc(N(C)C)cc1 [Compound 444, N-(Benzo[b]thiophen-2-yl)-N-(butyl)-4-dimethylamino-benzenesulfonamide] | 122 nM | 92% | –
CCCCN(c1cc2ccccc2s1)S(=O)(=O)c1ccc(N2CCCC2)cc1 [Compound 445, N-(Benzo[b]thiophen-2-yl)-N-(butyl)-4-pyrrolidin-1-yl-benzenesulfonamide] | – | 58% | –
CCCCN(c1cc2ccccc2s1)S(=O)(=O)c1ccc(N2CCOCC2)cc1 [Compound 446, N-Benzo[b]thiophen-2-yl-N-(butyl)-4-morpholin-4-yl-benzenesulfonamide] | 96 nM | 82% | –

The remaining molecules from weak to strong by IC50, led by results:

IC50 | inhibition at 0.2 µM | Structure (SMILES) | % Inh @ 0.2 (μM)
62 nM | 93% | CNCc1c(N(Cc2ccc(F)c(C(F)(F)F)c2)S(=O)(=O)c2ccccc2)sc2ccccc12 [Compound 417, N-(4-Fluoro-3-trifluoromethyl-benzyl)-N-(3-methylaminomethyl-benzo[b]thiophen-2-yl)-benzenesulfonamide] | –
33 nM | 93% | CCCCN(C1=C(Br)c2ccccc2S1(=O)=O)S(=O)(=O)c1ccc(C(=O)OC)cc1 [Compound 433, N-(3-Bromo-1,1-dioxo-benzo[b]thiophen-2-yl)-N-(butyl)-4-carbomethoxy-benzenesulfonamide] | –
33 nM | 95% | CCCCN(C1=C(Br)c2ccccc2S1(=O)=O)S(=O)(=O)c1ccc(C(=O)O)cc1 [Compound 435, N-(Butyl)-N-(3-bromo-1,1-dioxo-1H-benzo[b]thiophen-2-yl)-4-carboxy-benzenesulfonamide] | –
30 nM | 95% | Cc1c(N(CCCC(F)(F)F)S(=O)(=O)c2ccc(C(=O)O)cc2)sc2cc(F)ccc12 [Compound 426, N-(6-Fluoro-3-methyl-benzo[b]thiophen-2-yl)-N-(4,4,4-trifluoro-butyl)-4-carboxy-benzenesulfonamide] | –
20 nM | 88% | O=S1(=O)C(N(Cc2ccc(F)c(C(F)(F)F)c2)S(=O)(=O)c2ccccc2)=C(Br)c2ccccc21 [Compound 431, N-(3-Bromo-1,1-dioxo-benzo[b]thiophen-2-yl)-N-(4-fluoro-3-trifluoromethyl-benzyl)-benzenesulfonamide] | –
18 nM | 97% | CCCCN(c1sc2ccccc2c1OC)S(=O)(=O)c1ccc(C(=O)OC)cc1 [Compound 422, N-(Butyl)-N-(3-methoxy-benzo[b]thiophen-2-yl)-4-carbomethoxybenzenesulfonamide] | –
17 nM | 90% | CCCCN(C1=C(OC)c2ccccc2S1(=O)=O)S(=O)(=O)c1ccc(C(=O)O)cc1 [Compound 434, N-(Butyl)-N-(3-methoxy-1,1-dioxo-1H-benzo[b]thiophen-2-yl)-4-carboxy-benzenesulfonamide] | –
14 nM | 84% | O=C(O)c1ccc(S(=O)(=O)N(CC2CCOCC2)c2sc3ccccc3c2Br)cc1 [Compound 440, N-(3-Bromo-benzo[b]thiophen-2-yl)-N-((tetrahydro-2H-pyran-4-yl)methyl)-4-carboxy-benzenesulfonamide] | –
14 nM | 94% | CCCCN(c1sc2ccccc2c1Br)S(=O)(=O)c1ccc(-c2noc(=O)[nH]2)cc1 [Compound 443, N-(3-Bromo-benzo[b]thiophen-2-yl)-N-(butyl)-4-(5-oxo-4,5-dihydro-[1,2,4]oxadiazol-3-yl)-benzenesulfonamide] | –
10 nM | 93% | CCCCN(c1sc2ccccc2c1Br)S(=O)(=O)c1ccc(-c2nnn[nH]2)cc1 [Compound 428, N-(3-Bromo-benzo[b]thiophen-2-yl)-N-(butyl)-4-(1H-tetrazol-5-yl)-benzenesulfonamide] | –
9 nM | 92% | O=C(O)c1ccc(S(=O)(=O)N(CC2CCC2)c2sc3ccccc3c2Br)cc1 [Compound 437, N-(3-Bromo-benzo[b]thiophen-2-yl)-N-(cyclobutylmethyl)-4-carboxy-benzenesulfonamide] | –
7 nM | 93% | CCCCN(c1sc2ccccc2c1OC)S(=O)(=O)c1ccc(C(=O)O)cc1 [Compound 423, N-(Butyl)-N-(3-methoxy-benzo[b]thiophen-2-yl)-4-carboxy-benzenesulfonamide] | –
7 nM | 95% | O=S(=O)(c1ccc(-c2nnn[nH]2)cc1)N(Cc1ccc(F)c(C(F)(F)F)c1)c1cc2ccccc2s1 [Compound 424, N-(Benzo[b]thiophen-2-yl)-N-(4-fluoro-3-trifluoromethyl-benzyl)-4-(1H-tetrazol-5-yl)-benzenesulfonamide] | –
5 nM | 92% | COC(=O)c1ccc(S(=O)(=O)N(Cc2ccc(F)c(C(F)(F)F)c2)c2sc3ccccc3c2C(C)(C)O)cc1 [Compound 415, N-(4-Fluoro-3-trifluoromethylbenzyl)-N-(3-(1-hydroxy-1-methyl-ethyl)-benzo[b]thiophen-2-yl)-4-carbomethoxy-benzenesulfonamide] | –
5 nM | 95% | Cc1c(N(Cc2ccc(F)c(C(F)(F)F)c2)S(=O)(=O)c2ccc(C(=O)O)cc2)sc2cc(F)ccc12 [Compound 427, N-(6-Fluoro-3-methyl-benzo[b]thiophen-2-yl)-N-(4-fluoro-3-trifluoromethyl-benzyl)-4-carboxy-benzenesulfonamide] | –
4 nM | 89% | CCCCN(C1=C(OC)c2ccccc2S1(=O)=O)S(=O)(=O)c1ccc(C(=O)OC)cc1 [Compound 436, N-(Butyl)-N-(3-methoxy-1,1-dioxo-1H-benzo[b]thiophen-2-yl)-4-carbomethoxy-benzenesulfonamide] | –
2 nM | 90% | O=C(O)c1ccc(S(=O)(=O)N(CC2CCCC2)c2sc3ccccc3c2Br)cc1 [Compound 438, N-(3-Bromo-benzo[b]thiophen-2-yl)-N-(cyclopentylmethyl)-4-carboxy-benzenesulfonamide] | –
